# Test results taken from US9434693B2, “Substituted pyrazoles as N-type calcium channel blockers” (Janssen Pharmaceutica NV, priority 2012, dated 2016).
# Counter-ions that a name gives are not always drawn.
# Target: N-type calcium channel (α1B (Cav2.2), β3 and α2δ subunits) in stable HEK cell line (Homo sapiens (Human), UniProt Q00975)
# Assay: Functional assay (FDSS calcium mobilization): antagonism of N-type calcium channel
# Type: cell-based
# Details: for % Inhibition (%) at 0.33 μM / inhibition at 0.33 µM: FDSS, 0.33 μM compound; for IC50: KCl (50 mM) depolarization, six-point concentration-response; for inhibition at 0.33 µM: HEK293
# Procedure: A stable cell line (HEK parent) co-expressing the α1B (Cav2.2), β3 and α2δ subunits of the N-type calcium channel subunits was used. These cells were routinely grown as monolayers in low glucose-containing Dulbecco's Modified Eagle Medium supplemented with 10% FBS, 2 mM L-glutamine, 100 I.U./mL penicillin, 100 μg/mL streptomycin, 400 μg/mL G418 and 200 μg/mL Zeocin (split ratio=1:5). Cells were maintained in 5% CO2 at 37° C. Compounds of Formula (I) were prepared as 10 mM stocks in DMSO from neat compound, if available. Otherwise, the 5 or 10 mM DMSO stock solutions provided in-house were used.
# Calcium mobilization responses to KCl depolarization were evaluated by measuring the intensity of calcium-mediated fluorescent signal in the presence of BD Calcium Assay Dye (BD Biosciences, Franklin Lakes, N.J., U.S.A.), utilizing a Functional Drug Screening System (FDSS) by Hamamatsu Corporation (Bridgewater, N.J. U.S.A.).
# Twenty-four hr prior to assay, cells were seeded in clear-base poly-D-lysine-coated 384-well plates (BD Biosciences) at a density of 5,000 cells per well in culture medium and grown overnight in 5% CO2 at 37° C. On the day of assay, growth media were removed, and cells were loaded with BD calcium assay dye (BD Biosciences) for 35 min at 37° C. under 5% CO2 and then for 25 min at room temp. Utilizing the FDSS, cells were exposed to representative compounds of Formula (I) at varying concentrations, and intracellular calcium was measured for 5 min prior to the addition of 50 mM KCl for an additional 3 min of measurement.
# IC50 values for representative compounds of Formula (I) were determined from six-point concentration-response experiments and represent the concentration of said compound required to inhibit 50% of the maximal response. Maximal fluorescence intensity (FI) achieved upon addition of 50 mM KCl was exported from the FDSS software and further analyzed using GraphPad Prism 3.02 (Graph Pad Software Inc., San Diego, Calif., U.S.A.). Data were normalized to the maximum average counts from quadruplicate wells for each condition in the presence of 50 mM KCl and to the minimum average counts in the presence of buffer. Theoretical curves were generated using nonlinear regression curve-fitting analysis of either sigmoidal concentration-response or sigmoidal concentration-response (variable slope), and the IC50 values with the best-fit curve determined by GraphPad Prism were reported.
# Chain of N-type calcium channel (α1B (Cav2.2), β3 and α2δ subunits) in stable HEK cell line (Q00975 whole entry): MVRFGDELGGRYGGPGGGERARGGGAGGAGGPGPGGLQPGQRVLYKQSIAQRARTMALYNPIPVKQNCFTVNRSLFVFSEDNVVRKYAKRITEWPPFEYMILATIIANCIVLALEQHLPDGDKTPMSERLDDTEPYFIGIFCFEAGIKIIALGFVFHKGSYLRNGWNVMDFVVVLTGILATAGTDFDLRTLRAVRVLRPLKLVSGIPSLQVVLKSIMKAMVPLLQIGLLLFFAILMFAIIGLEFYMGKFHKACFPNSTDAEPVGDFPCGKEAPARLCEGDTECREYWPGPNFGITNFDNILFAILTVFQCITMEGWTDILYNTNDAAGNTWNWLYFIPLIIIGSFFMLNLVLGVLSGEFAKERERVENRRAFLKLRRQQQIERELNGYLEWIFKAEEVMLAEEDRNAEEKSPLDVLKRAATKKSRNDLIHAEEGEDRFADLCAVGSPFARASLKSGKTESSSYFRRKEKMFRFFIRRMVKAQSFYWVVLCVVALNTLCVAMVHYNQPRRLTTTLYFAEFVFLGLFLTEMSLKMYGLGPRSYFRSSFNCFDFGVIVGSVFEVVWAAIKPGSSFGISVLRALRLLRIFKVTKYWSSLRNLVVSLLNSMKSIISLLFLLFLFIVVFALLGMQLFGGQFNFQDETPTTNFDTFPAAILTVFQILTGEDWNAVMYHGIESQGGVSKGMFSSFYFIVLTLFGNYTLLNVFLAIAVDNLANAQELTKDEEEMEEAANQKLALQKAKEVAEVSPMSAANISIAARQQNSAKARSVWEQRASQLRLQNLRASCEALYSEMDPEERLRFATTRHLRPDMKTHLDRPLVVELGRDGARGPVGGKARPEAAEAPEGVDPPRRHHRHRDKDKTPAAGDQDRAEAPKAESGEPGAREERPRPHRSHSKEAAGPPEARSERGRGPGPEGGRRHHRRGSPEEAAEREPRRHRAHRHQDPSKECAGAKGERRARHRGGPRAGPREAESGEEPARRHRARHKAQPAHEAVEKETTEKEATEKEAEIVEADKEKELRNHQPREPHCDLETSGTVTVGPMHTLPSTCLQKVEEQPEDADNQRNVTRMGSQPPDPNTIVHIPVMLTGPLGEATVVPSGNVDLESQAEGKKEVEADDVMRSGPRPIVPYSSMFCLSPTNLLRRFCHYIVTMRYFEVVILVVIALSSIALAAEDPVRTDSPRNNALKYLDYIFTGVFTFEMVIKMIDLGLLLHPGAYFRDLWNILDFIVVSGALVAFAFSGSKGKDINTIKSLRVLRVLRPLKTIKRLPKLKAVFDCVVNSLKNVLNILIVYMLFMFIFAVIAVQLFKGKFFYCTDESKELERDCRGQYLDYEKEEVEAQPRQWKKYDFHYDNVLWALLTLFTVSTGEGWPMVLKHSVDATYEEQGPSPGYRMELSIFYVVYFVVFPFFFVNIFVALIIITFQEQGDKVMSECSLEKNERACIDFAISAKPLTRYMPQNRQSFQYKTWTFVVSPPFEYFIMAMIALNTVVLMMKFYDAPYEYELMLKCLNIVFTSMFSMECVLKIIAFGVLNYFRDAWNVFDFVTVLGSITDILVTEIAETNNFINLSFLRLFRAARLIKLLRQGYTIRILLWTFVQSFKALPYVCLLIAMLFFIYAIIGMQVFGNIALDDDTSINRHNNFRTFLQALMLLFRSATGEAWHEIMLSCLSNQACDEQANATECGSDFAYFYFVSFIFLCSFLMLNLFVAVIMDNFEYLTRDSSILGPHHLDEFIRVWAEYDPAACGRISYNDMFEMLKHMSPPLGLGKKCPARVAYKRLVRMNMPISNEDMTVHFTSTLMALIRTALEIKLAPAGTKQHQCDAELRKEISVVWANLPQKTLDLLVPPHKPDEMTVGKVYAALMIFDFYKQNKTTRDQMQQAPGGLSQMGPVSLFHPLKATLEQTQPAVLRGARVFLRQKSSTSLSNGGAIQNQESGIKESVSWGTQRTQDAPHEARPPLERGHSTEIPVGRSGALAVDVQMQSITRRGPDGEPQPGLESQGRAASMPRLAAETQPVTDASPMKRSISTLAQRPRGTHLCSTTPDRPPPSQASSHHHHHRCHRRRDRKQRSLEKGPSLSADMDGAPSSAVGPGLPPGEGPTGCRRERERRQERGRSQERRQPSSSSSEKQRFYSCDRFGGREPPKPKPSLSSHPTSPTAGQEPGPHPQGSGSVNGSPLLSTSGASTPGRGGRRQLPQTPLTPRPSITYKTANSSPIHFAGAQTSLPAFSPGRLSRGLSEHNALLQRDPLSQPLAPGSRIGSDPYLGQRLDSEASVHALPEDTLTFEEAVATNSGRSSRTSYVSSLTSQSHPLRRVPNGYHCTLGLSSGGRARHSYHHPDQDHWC
# Chain of N-type calcium channel (α1B (Cav2.2), β3 and α2δ subunits) in stable HEK cell line (P54284 whole entry partner): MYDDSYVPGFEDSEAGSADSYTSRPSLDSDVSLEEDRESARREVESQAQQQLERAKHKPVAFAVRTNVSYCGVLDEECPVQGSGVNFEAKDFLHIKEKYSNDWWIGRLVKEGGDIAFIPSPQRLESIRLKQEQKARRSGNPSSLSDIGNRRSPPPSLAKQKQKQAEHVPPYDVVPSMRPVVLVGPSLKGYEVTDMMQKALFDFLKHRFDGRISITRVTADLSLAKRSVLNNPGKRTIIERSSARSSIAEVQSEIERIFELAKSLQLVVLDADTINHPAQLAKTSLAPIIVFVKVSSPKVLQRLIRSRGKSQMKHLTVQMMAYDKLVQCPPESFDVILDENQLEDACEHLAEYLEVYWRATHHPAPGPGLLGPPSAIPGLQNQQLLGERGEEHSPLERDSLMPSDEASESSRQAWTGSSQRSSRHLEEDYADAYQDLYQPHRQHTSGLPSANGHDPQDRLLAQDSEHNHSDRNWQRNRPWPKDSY
# Chain of N-type calcium channel (α1B (Cav2.2), β3 and α2δ subunits) in stable HEK cell line (P54289 25-1103 partner): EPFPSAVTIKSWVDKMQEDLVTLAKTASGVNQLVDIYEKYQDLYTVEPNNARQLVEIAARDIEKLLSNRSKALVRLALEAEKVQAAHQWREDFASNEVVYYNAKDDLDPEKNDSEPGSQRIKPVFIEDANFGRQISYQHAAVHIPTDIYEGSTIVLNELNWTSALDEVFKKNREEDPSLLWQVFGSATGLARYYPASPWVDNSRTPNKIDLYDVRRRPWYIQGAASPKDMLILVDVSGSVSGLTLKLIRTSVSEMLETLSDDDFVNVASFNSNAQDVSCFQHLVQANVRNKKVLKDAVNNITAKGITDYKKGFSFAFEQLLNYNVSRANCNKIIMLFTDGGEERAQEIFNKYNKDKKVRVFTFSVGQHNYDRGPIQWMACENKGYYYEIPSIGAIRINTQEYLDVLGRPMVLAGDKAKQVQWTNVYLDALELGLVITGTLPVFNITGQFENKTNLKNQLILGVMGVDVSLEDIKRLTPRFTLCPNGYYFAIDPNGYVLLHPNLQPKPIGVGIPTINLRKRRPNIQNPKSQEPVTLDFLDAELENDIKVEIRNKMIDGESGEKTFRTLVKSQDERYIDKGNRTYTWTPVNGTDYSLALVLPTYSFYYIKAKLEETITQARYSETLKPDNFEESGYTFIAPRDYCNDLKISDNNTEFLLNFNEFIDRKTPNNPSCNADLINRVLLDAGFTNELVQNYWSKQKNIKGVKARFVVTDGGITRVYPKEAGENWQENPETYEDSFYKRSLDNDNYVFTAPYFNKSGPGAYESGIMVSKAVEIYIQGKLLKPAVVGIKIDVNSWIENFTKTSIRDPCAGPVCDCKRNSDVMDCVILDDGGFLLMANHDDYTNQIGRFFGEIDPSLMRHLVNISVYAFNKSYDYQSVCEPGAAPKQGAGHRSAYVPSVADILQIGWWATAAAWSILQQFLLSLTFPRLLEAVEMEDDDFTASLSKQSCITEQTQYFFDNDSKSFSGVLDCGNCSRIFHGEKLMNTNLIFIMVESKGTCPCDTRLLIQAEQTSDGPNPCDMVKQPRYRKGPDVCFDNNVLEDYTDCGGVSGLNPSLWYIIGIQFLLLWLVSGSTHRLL
smiles,measurement,value
"COc1ccc(-c2cc(O[C@H]3CC(C)(C)[S@@+]([O-])C(C)(C)C3)nn2-c2ccccc2OC)cc1 [Compound 35, (1s,4s)-4-((1-(2-methoxyphenyl)-5-(4-methoxyphenyl)-1H-pyrazol-3-yl)oxy)-2,2,6,6-tetramethyltetrahydro-2H-thiopyran 1-oxide]",% Inhibition (%) at 0.33 μM,91%
same,IC50,7.6 nM
"COc1ccccc1-n1nc(OC2CCN(C(=O)N(C)C)CC2)cc1-c1ccc(Cl)cc1 [Compound 4, 4-{[5-(4-Chlorophenyl)-1-(2-methoxyphenyl)-1H-pyrazol-3-yl]oxy}-N,N-dimethylpiperidine-1-carboxamide]",IC50,14 nM
"COc1ccccc1-n1nc(O[C@H]2CC[C@@H](NC(=O)C(F)(F)F)CC2)cc1-c1ccc(Cl)cc1 [Compound 13, N-(cis-4-{[5-(4-Chlorophenyl)-1-(2-methoxyphenyl)-1H-pyrazol-3-yl]oxy}cyclohexyl)-2,2,2-trifluoroacetamide]",IC50,11 nM
"COc1ccccc1-n1nc(OC2CC(C)(C)OC(C)(C)C2)cc1-c1ccc(C#N)cc1 [Compound 43, 4-{1-(2-Methoxyphenyl)-3-[(2,2,6,6-tetramethyltetrahydro-2H-pyran-4-yl)oxy]-1H-pyrazol-5-yl}benzonitrile]",inhibition at 0.33 µM,90%
same,IC50,7.2 nM
"COc1ccccc1-n1nc(OC2CCC(=O)CC2)cc1-c1ccc(Cl)cc1 [Compound 2, 4-{[5-(4-Chlorophenyl)-1-(2-methoxyphenyl)-1H-pyrazol-3-yl]oxy}cyclohexanone]",IC50,28 nM
"COc1ccccc1-n1nc(OC2CC(C)(C)S(=O)(=O)C(C)(C)C2)cc1-c1ccc(C#N)cc1 [Compound 45, 4-{1-(2-Methoxyphenyl)-3-[(2,2,6,6-tetramethyl-1,1-dioxidotetrahydro-2H-thiopyran-4-yl)oxy]-1H-pyrazol-5-yl}benzonitrile]",inhibition at 0.33 µM,99%
same,IC50,2.4 nM
"COc1ccccc1-n1nc(OC2CC(C)(C)C(O)C(C)(C)C2)cc1-c1ccc(Cl)cc1 (centres unmarked) [Compound 42, 4-{[5-(4-Chlorophenyl)-1-(2-methoxyphenyl)-1H-pyrazol-3-yl]oxy}-2,2,6,6-tetramethylcyclohexanol]",inhibition at 0.33 µM,78%
same,IC50,39 nM
COc1ccccc1-n1nc(O[C@H]2CC(C)(C)[S@+]([O-])C(C)(C)C2)cc1-c1ccc(C#N)cc1 [Compound 46],% Inhibition (%) at 0.33 μM,90%
same,IC50,14 nM
"COc1ccccc1-n1nc(OC2CN(C(=O)OC(C)(C)C)C2)cc1-c1ccc(Cl)cc1 [Compound 22, tert-Butyl 3-{[5-(4-chlorophenyl)-1-(2-methoxyphenyl)-1H-pyrazol-3-yl]oxy}azetidine-1-carboxylate]",inhibition at 0.33 µM,90%
same,IC50,67 nM
"COc1ccccc1-n1nc(O[C@H]2CC[C@@H](NC(=O)OC(C)(C)C)CC2)cc1-c1ccc(Cl)cc1 [Compound 11, tert-Butyl (cis-4-{[5-(4-chlorophenyl)-1-(2-methoxyphenyl)-1H-pyrazol-3-yl]oxy}cyclohexyl)carbamate]",IC50,62 nM
"COc1ccc(-c2cc(O[C@H]3CC(C)(C)[S@+]([O-])C(C)(C)C3)nn2-c2ccccc2OC)cc1 [Compound 34, (1r,4r)-4-((1-(2-methoxyphenyl)-5-(4-methoxyphenyl)-1H-pyrazol-3-yl)oxy)-2,2,6,6-tetramethyltetrahydro-2H-thiopyran 1-oxide]",% Inhibition (%) at 0.33 μM,94%
same,IC50,4.5 nM
"CC(C)(C)Oc1ccccc1-n1nc(OC2CCN(S(C)(=O)=O)CC2)cc1-c1ccc(Cl)cc1 [Compound 24, 4-{[1-(2-tert-Butoxyphenyl)-5-(4-chlorophenyl)-1H-pyrazol-3-yl]oxy}-1-(methylsulfonyl)piperidine]",inhibition at 0.33 µM,57%
"COc1ccccc1-n1nc(OC2CN(S(=O)(=O)C(C)C)C2)cc1-c1ccc(Cl)cc1 [Compound 25, 5-(4-Chlorophenyl)-1-(2-methoxyphenyl)-3-({1-[(1-methylethyl)sulfonyl]azetidin-3-yl}oxy)-1H-pyrazole]",inhibition at 0.33 µM,92%
same,IC50,36 nM
"CCc1ccccc1-n1nc(OC2CCC3(CC2)OCCO3)cc1-c1ccc(Cl)cc1 [Compound 17, 5-(4-Chlorophenyl)-3-(1,4-dioxaspiro[4.5]dec-8-yloxy)-1-(2-ethylphenyl)-1H-pyrazole]",IC50,81 nM
"COc1ccccc1-n1nc(OC2CCOCC2)cc1-c1ccc(Cl)cc1 [Compound 6, 5-(4-Chlorophenyl)-1-(2-methoxyphenyl)-3-(tetrahydro-2H-pyran-4-yloxy)-1H-pyrazole]",inhibition at 0.33 µM,98%
same,IC50,15 nM
"COc1ccccc1-n1nc(OC2CCN(C(=O)C(F)(F)F)CC2)cc1-c1ccc(Cl)cc1 [Compound 9, 4-{[5-(4-Chlorophenyl)-1-(2-methoxyphenyl)-1H-pyrazol-3-yl]oxy}-1-(trifluoroacetyl)piperidine]",IC50,31.4 nM
"COc1ccccc1-n1nc(OC2CCN(S(C)(=O)=O)CC2)cc1-c1ccc(Cl)cc1 [Compound 5, 4-{[5-(4-Chlorophenyl)-1-(2-methoxyphenyl)-1H-pyrazol-3-yl]oxy}-1-(methylsulfonyl)piperidine]",IC50,15 nM
"COc1ccccc1-n1nc(O[C@H]2CC[C@@H](N)CC2)cc1-c1ccc(Cl)cc1 [Compound 12, cis-4-{[5-(4-Chlorophenyl)-1-(2-methoxyphenyl)-1H-pyrazol-3-yl]oxy}cyclohexanamine trifluoroacetate]",IC50,400 nM
"COc1ccccc1-n1nc(OC2CN(C(=O)c3ccccc3)C2)cc1-c1ccc(Cl)cc1 [Compound 27, 5-(4-Chlorophenyl)-1-(2-methoxyphenyl)-3-{[1-(phenylcarbonyl)azetidin-3-yl]oxy}-1H-pyrazole]",inhibition at 0.33 µM,87%
same,IC50,85 nM
"COc1ccccc1-n1nc(O[C@H]2CC(C)(C)[S@+]([O-])C(C)(C)C2)cc1-c1ccc(Cl)cc1.O=C(O)C(F)(F)F [Compound 38, (1r,4r)-4-((5-(4-chlorophenyl)-1-(2-methoxyphenyl)-1H-pyrazol-3-yl)oxy)-2,2,6,6-tetramethyltetrahydro-2H-thiopyran 1-oxide trifluoroacetate]",% Inhibition (%) at 0.33 μM,98%
same,IC50,2.7 nM
"COc1ccccc1-n1nc(O[C@H]2CC(C)(C)[S@@+]([O-])C(C)(C)C2)cc1-c1ccc(Cl)cc1.O=C(O)C(F)(F)F [Compound 39, (1 s,4s)-4-((5-(4-chlorophenyl)-1-(2-methoxyphenyl)-1H-pyrazol-3-yl)oxy)-2,2,6,6-tetramethyltetrahydro-2H-thiopyran 1-oxide trifluoroacetate]",% Inhibition (%) at 0.33 μM,99%
same,IC50,1.5 nM
"COc1ccc(-c2cc(OC3CC(C)(C)S(=O)(=O)C(C)(C)C3)nn2-c2ccccc2OC)cc1 [Compound 33, 1-(2-Methoxyphenyl)-5-(4-methoxyphenyl)-3-[(2,2,6,6-tetramethyl-1,1-dioxidotetrahydro-2H-thiopyran-4-yl)oxy]-1H-pyrazole]",inhibition at 0.33 µM,94%
same,IC50,3 nM
"COc1ccccc1-n1nc(OC2CC(C)(C)SC(C)(C)C2)cc1-c1ccc(Cl)cc1 [Compound 36, 5-(4-Chlorophenyl)-1-(2-methoxyphenyl)-3-[(2,2,6,6-tetramethyltetrahydro-2H-thiopyran-4-yl)oxy]-1H-pyrazole]",inhibition at 0.33 µM,91%
same,IC50,5.9 nM
"COc1ccccc1-n1nc(OC2CCN(CC(F)(F)F)CC2)cc1-c1ccc(Cl)cc1 [Compound 8, 4-{[5-(4-Chlorophenyl)-1-(2-methoxyphenyl)-1H-pyrazol-3-yl]oxy}-1-(2,2,2-trifluoroethyl)piperidine]",IC50,31 nM
